Measurements taken from patent publication US9598406B2, “Quinazolinone derivatives for use in the treatment of chlamydiales infections” (Commissariat a l'Energie Atomique et aux Energies …, priority 2015, dated 2017).

Columns and labels:
Assay type in all cases: cell-based
[1] = tested on: Chlamydia trachomatis (Ctr) strain L2/434/Bu; test: Chlamydia trachomatis progeny infection of HeLa229 cells, cellular protection by compounds at 25 μM (GFP-signal, Image J quantification); details: HeLa229 cells pretreated 1 hour, Ctr MOI1, progeny infection fixed 48 hpi, versus solvent-treated cells
Protocol: HeLa229 (ATCC CCL-2.1). Cells were grown in RPMI1640 medium (Glutamax, 10% FBS, w/o HEPES) (Invitrogen).
Chlamydia trachomatis (Ctr). Laboratory-adapted strain L2/434/Bu (ATCC VR902B) was used in assays. Full biological and genetic information is available for this strain including complete genome sequence and defined proteome. This strain has a relatively low particle to infectivity ratio, perform efficient cell infection and has a higher viability than standard genital tract isolates with faster developmental cycle. Culture conditions have been described in (Wang Y., Kahane S., Cutcliffe L. T., Skilton R. J., Lambden P. R., Clarke I. N. Development of a transformation system for Chlamydia trachomatis: Restoration of glycogen biosynthesis by acquisition of a plasmid shuttle vector. PLoS Pathogen, 2011, 7(9):e1002258. doi: 10.1371/journal.ppat.1002258).
Compound application during Chlamydia trachomatis infection. HeLa229 cells were pretreated with Retro-2 and Retro-2 derivatives in concentrations of 25 μM for 1 hour until Chlamydia trachomatis (MOI1) were added to the cells. Compounds were present during infection. To obtain progeny infection, compound treated cells were lysed 24 h post infection (hpi) and lysate was used to infect fresh HeLa 229 cells. Infected cells of progeny infection were fixed with 4% Paraformaldehyde 48 hpi. Cells were stained for DAPI and Chlamydia trachomatis were detected by GFP-signal. Images are representative of n=2 independent experiments. Quantification of infected cells by Chlamydia trachomatis was realized from microscopy images with Image J software (FIG. 8) and cellular protection by compounds at 25 μM was then determined (Table 1) by comparison with solvent-treated cells (control) with the following equation: […]

[2] = tested on: Chlamydia trachomatis (Ctr) strain L2/434/Bu; test: Chlamydia trachomatis (Ctr) infectivity assays in HeLa229 cells with Retro-2 at 25, 50 and 75 μM (HSP60 immunoblot, GFP-signal)
Protocol: (§1) HeLa229 (ATCC CCL-2.1) were grown in RPMI1640 medium (Glutamax, 10% FBS, w/o HEPES) (Invitrogen). Stable HeLa229 cell lines were established to constantly label the Golgi apparatus (B4GalT1 in a pCMV6-AC-mRFP cloning vector, OriGene) and the ER (KDEL in a pDsRed2-ER expression vector).
Chlamydia trachomatis (Ctr). Laboratory-adapted strain L2/434/Bu (ATCC VR902B) was used in assays. Full biological and genetic information is available for this strain including complete genome sequence and defined proteome. This strain has a relatively low particle to infectivity ratio, perform efficient cell infection and has a higher viability than standard genital tract isolates with faster developmental cycle. […]
(A) Cells with primary infection were lysed 24 h post infection (hpi). […] Progeny infection was lysed 24 hpi and analyzed together with primary infection samples by immunoblot. Chlamydial growth was detected with antibodies against chlamydial HSP60 protein and Actin was used as loading control (FIG. 6).
(B) Infected cells were fixed with 4% Paraformaldehyde 24 hpi. Cells were stained by Alexa-680 coupled Phalloidin and Ctr were detected by GFP-signal (FIG. 7).

[3] = tested on: Simkania negevensis (Sn) strain Z; test: Simkania negevensis (Sn) infectivity assays in HeLa229 cells (primary and progeny infection; GroEL immunoblot, inclusion size/number, microscopy, TEM)
Protocol: as §1
Simkania negevensis (Sn) strain Z (ATCC VR-1471) was prepared as described previously (Mehlitz A, Karunakaran K, Herweg J A, Krohne G, van de Linde S, Rieck E, Sauer M, Rudel T. The chlamydial organism Sn forms ER vacuole contact sites and inhibits ER-stress. Cell Microbiol 2014; 16(8):1224-1243).
Briefly, HeLa229 cells were grown to 50-70% confluence, were inoculated with Sn in RPMI1640 with 5% FBS, for 6 h at 35° C. in a humidified incubator at 5% CO2. Medium was replaced by infection medium (RPMI1640, Glutamax, 5% FBS, w/o HEPES) and growth was allowed for 3 days. Cells were mechanically detached and bacteria were released using ˜2-5 mm glass beads (Carl Roth). Low speed supernatant (600×g, 4° C. and 5 min) was subjected to high-speed centrifugation (20,000×g, 4° C. and 30 min) to pellet bacteria. Bacteria were washed twice with 5 ml SPG (250 mM sucrose, 50 mM sodium phosphate, 5 mM glutamate, pH 7.4), aliquoted and stored at −80° C. in SPG.
40,000 HeLa cells were seeded in 12-well cluster plates, inhibitor-treated and infected as indicated in the respective experiments.
For infectivity assays cells were either fixed and stained at indicated time points (FIG. 2, 4; inclusion formation/primary infection) or bacteria were released via one freeze thaw cycle (−70° C./37° C.) followed by mechanical release through pipetting and transfer to fresh HeLa229 cells (1:25-1:50, progeny/infectivity). Cells were centrifuged for 1 h at 35° C. and medium exchanged to infection medium. […] Infectivity assays were imaged on an automated fluorescence microscope Leica DMIR (FIG. 4). Numbers and average sizes of the SCV as well as host cell numbers were determined via GroEL and DAPI staining and images were analysed and quantified using FIJI (ImageJ) and Excel (Microsoft). […]

SMILES: Cc1nc(-c2ccc(C3Nc4ccccc4C(=O)N3c3ccccc3)s2)cs1 (centres unmarked) [Compound 25, 2-(5-(2-methylthiazol-4-yl)thiophen-2-yl)-3-phenyl-2,3-dihydroquinazolin-4(1H)-one]
- Cellular protection at 25 μM (%) [1]: 100%

SMILES: CN1c2ccccc2C(=O)N(c2ccccc2)C1c1ccc(Br)s1 (centres unmarked) [RN-2-016, 2-(5-bromothiophen-2-yl)-1-methyl-3-phenyl-2,3-dihydroquinazolin-4(1H)-one]
- Cellular protection at 25 μM (%) [1]: 91.8%

SMILES: Cc1nc(-c2ccc(C3N(C)c4ccccc4C(=O)N3c3ccccc3Cl)s2)cs1 (centres unmarked) [RN-3-072, 3-(2-chlorophenyl)-1-methyl-2-(5-(2-methylthiazol-4-yl)thiophen-2-yl)-2,3-dihydroquinazolin-4(1H)-one]
- Cellular protection at 25 μM (%) [1]: 100%

SMILES: Cc1ccc(C2Nc3ccccc3C(=O)N2c2ccccc2)s1 (centres unmarked) [Retro-2, 2-(5-methylthiophen-2-yl)-3-phenyl-2,3-dihydroquinazolin-4(1H)-one]
- Cellular protection at 25 μM (%) [1]: 18.1%
- Ctr Hsp60 detection in the progeny infection ([2]; 75 μM of Retro-2, immunoblot, FIG. 6): almost no Ctr Hsp60 detection
- Effect on Ctr development (Hsp60 western, GFP-expressing Ctr inclusions) ([2]; HeLa229 cells, Retro-2 25, 50 and 75 μM, primary infection 24 hpi): strong inhibitory effect
- Concentration at which maximal inhibition of Sn replication was observed ([3]; HeLa cells, FIGS. 1-4): 75 µM
- Effect on primary and progeny infection for Sn ([3]; HeLa cells, Retro-2 at 25 and 75 μM, GroEL western, inclusion size, inclusion number, microscopy): inhibitir effect on primary and progeny infection
- Sn inclusions morphology (transmission electron microscopy) ([3]; infected HeLa cells, versus DMSO-treated control, FIG. 5): sub-vacuolar membranes were highly enlarged and contained excessive membrane material

SMILES: Cc1nc(-c2ccc(C3N(C)c4ccc(F)cc4C(=O)N3c3ccccc3)s2)cs1 (centres unmarked) [Retro-2.1, 6-fluoro-1-methyl-2-(5-(2-methylthiazol-4-yl)thiophen-2-yl)-3-phenyl-2,3-dihydroquinazolin-4(1H)-one]
- Cellular protection at 25 μM (%) [1]: 100%

SMILES: CN1c2ccccc2C(=O)N(c2ccccc2)C1c1ccc(-c2csc(-c3ccc(F)cc3)n2)s1 (centres unmarked) [VP-89, 2-(5-(2-(4-fluorophenyl)thiazol-4-yl)thiophen-2-yl)-1-methyl-3-phenyl-2,3-dihydroquinazolin-4(1H)-one]
- Cellular protection at 25 μM (%) [1]: 88.5%
